Assay results from US20260092085A1, “SYNTHETIC TRIPLEX PEPTIDE NUCLEIC ACID-BASED INHIBITORS FOR CANCER THERAPY” (University of Connecticut, priority 2022, published 2026).

Assays:
[1] = test system: SUDHL-2 tumors; test: Tumor growth in SUDHL-2 derived xenograft; format: in vivo, NSG mice; conditions: SUDHL-2 xenograft, intratumoral, compared to Scr-γtcPNA-155 and PNA-155 control
Description: Data represented as mean±standard error mean (SEM). Scr-γtcPNA-155 (n=4), PNA-155 (n=5), γtcPNA-155 (n=5), *p<0.05, **p<0.01, ***p<0.001, ****p<0.0001. Multiple t-tests one per row was used for statistical analysis.
For SUDHL-2 xenografts, 1×10^7 SUDHL-2 cells suspended in RPMI-1640 medium were injected subcutaneously in the right and left flank of 6-week-old NSG mice. The mice developed a small bump in 2-3 weeks. When the tumor volume reached 100-200 mm^3, the mice were randomly allocated to the treatment group (n=5 per group).
Further, we corroborated our results in the SUDHL-2 derived xenograft mouse model. We injected the SUDHL-2 cells in the right and left flank of mice. After 14-21 days, when the tumor volume reached 100-200 mm3, the mice were randomized into three treatment groups based on uniform tumor volume distribution in each group. […] (FIG. 27)

[2] = test system: SUDHL-2 cells; test: Cell viability by trypan blue assay, SUDHL-2; format: cell-based
Description: Cell viability was performed using trypan blue-based assay (n=3 technical triplicate), data represented as mean±(SEM), * represents the statistical analysis were performed relative to Scr-γtcPNA-155 and ♦ represent analysis performed relative to PNA-155. *p<0.05, **p<0.01, ***p<0.001 and ****p<0.0001, ♦p<0.05, ♦♦p<0.01, unpaired two-tailed t-test was used for statistical analysis. The experiment was repeated three times and in triplicate.
Cell viability was performed using trypan blue-based assay (n=3), data represented as mean±standard error mean (SEM), *p<0.05, **p<0.01. Unpaired two-tailed t-test was used for statistical analysis.
Cell viability was performed using trypan blue-based assay (n=3), data represented as mean±standard error mean (SEM).
Cell viability by trypan blue assay: Diffused large B cell lymphoma (DLBCL) cell lines like SUDHL-2 (ATCC® CRL-2956™) and SUDHL-5 (ATCC® CRL-2958™) cells were purchased from ATCC (Virginia, USA). The cells were regularly tested for Mycoplasma contamination using MycoAlert™ Mycoplasma detection kit (Lonza). All the cells used in the experiment were passaged less than 8 times. 10,000 U2932, SUDHL-5, or SUDHL-2 cells were plated in a 96 well plate. The cells were treated with different doses (500 nM, 1000 nM, 2000 nM and 4000 nM) of PNA-155, gamma tcPNA-155 or Scr-γtcPNA-155 for 48 hrs in an incubator (37° C. and 5% CO2). The dead cells were marked with trypan blue. Further counting was performed using an automated cell counter (Bio-rad).

[3] = test system: U2932 cells; test: Annexin V-based apoptosis assay in U2932 cells; format: cell-based, human; conditions: 48 hours
Description: Quantification of apoptotic cells by flow cytometry after treating U2932 cells with PBS as a control and 500 nM Scr-γtcPNA-155, PNA-155, γPNA-155 and γtcPNA-155 for 48 hours. The apoptotic cells and necrotic were stained using Phycoerythrin (PE) Annexin V and 7-Amino-Actinomycin (7-AAD) respectively. The % apoptotic cells after treatment was compared to the PBS treated cells, by setting the same threshold. Bar graph of % apoptotic cells (n=3 technical triplicate), data represented as mean±standard error mean (SEM), *p<0.05, **p<0.01, ***p<0.001, unpaired two-tailed t-test was used for statistical analysis. Representative dot plots of Scr-γtcPNA-155 and γtcPNA-155 treated U2932 cells. The experiment was repeated three times and in triplicate. One out of three representative experiments are shown.
The apoptotic cells and necrotic were stained using Phycoerythrin (PE) Annexin V and 7-Amino-Actinomycin (7-AAD) respectively. The % apoptotic cells after treatment was compared to the PBS treated cells, by setting the same threshold. Bar graph of % apoptotic cells (n=3 technical triplicate), data represented as mean±standard error mean (SEM), **p<0.01, unpaired two-tailed t-test was used for statistical analysis. Representative dot plots of PBS treated and γtcPNA-155 treated U2932 cells. The experiment was repeated three times and in triplicate. One out of three representative experiments is shown.
Apoptosis Assay: 400,000 U2932 cells were seeded in a 12 well plate. The cells were treated with 500 nM PNA-155, γPNA-155, γtcPNA-155, Scr-γ tcPNA-155 or were PBS treated (control) for 48 hrs in an incubator (37° C., 5% CO2). The cells were washed with PBS twice. The cells were centrifuged at 2000 rpm for 4 mins at 4° C. The cell pellet was suspended in IX Annexin V binding buffer. The cells were then counted and 100 μL of cell suspension (containing 2.5×10^5 cells) was passed through the FACS tube. […] 400 μL of IX Annexin V binding buffer was added to the cells and the cells were then analyzed using LSR Fortessa™ X-20 Cell analyzer as indicated above. […]

## γtcPNA-155: serine gamma tail-clamp anti-miR-155 PNA, RR-TJJJJ-OOO-ACCCCTATCACGATTAGCATTAA-RR, SEQ ID NO: 3 (all peptide nucleic acid (PNA); serine gamma PNA, tail-clamp TJJJJ via linkers, Arg-Arg at both ends)
[1]
  tumor growth: reduced the tumor growth
[2]; SUDHL-2, 500 nM, compared to PNA-155 treated group
  reduction in cell viability at 500 nM: significant reduction in cell viability
[2]; SUDHL-2, 4UM, 48 hours
  decrease in cell viability: ~80%
[3]; U2932, 500 nM
  apoptosis by Annexin-V FITC confocal imaging: higher apoptosis
[3]; U2932, 500 nM, versus PNA-155 and γPNA-155 treated group
  apoptosis by annexin V flow cytometry: increased apoptosis
[3]; U2932, 10 uM
  increase in apoptosis in comparison to control: 4.5 fold
